From PMC8509773, “3-Pyridinylidene Derivatives of Chemically Modified Lupane and Ursane Triterpenes as Promising Anticancer Agents by Targeting Apoptosis” (International Journal of Molecular Sciences, 2021)
“Also recorded” adds a separate entry of the source. Marks after values point to notes of the source that are not given here.

Key:
[1] = system: chorioallantoic membrane; test: Chorioallantoic membrane (CAM) angiogenesis assay; assay type: in vivo, chicken; conditions: 1 µM in 0.5% DMSO, applied daily for 72 h
Procedure: The potential effects of compounds 6 and 7 on the angiogenesis process were investigated using the chorioallantoic membrane (CAM) assay which uses fertilized chicken eggs, incubated at 37 °C, under controlled humidity. On the third day of incubation (embryonic day 3 of development, EDD 3), a small opening was made at one end of the eggs and 5–6 mL of albumen was removed, thus facilitating the separation of the chorioallantoic membrane. On EDD 4, a window was cut on the upper side of the egg and subsequently resealed, returning the specimens to the incubator. On EDD 7 (0 h), 10 µL of each test solution was administered inside a plastic ring previously applied on the intensely vascularized surface of the CAM [75, 76]. […] All samples were applied daily in the same volume for 72 h. For each analyzed sample, 5 eggs were used, and all samples were applied in triplicate. Macroscopic evaluation was daily performed in ovo by means of stereomicroscopy (ZEISS SteREO Discovery.V8, Göttingen, Germany) and all images were registered and processed by Axiocam 105 color, AxioVision SE64. Rel. 4.9.1 Software, (ZEISS Göttingen, Germany), ImageJ (ImageJ Version 1.50e, https://imagej.nih.gov/ij/index.html, accessed on 12 May 2021) and GIMP software (GIMP v 2.8, https://www.gimp.org/, accessed on 12 May 2021).

[2] = system: Bak gene; test: rtPCR gene expression in A375 cells; assay type: cell-based, human
Text: (§1) We applied rtPCR techniques in order to investigate the effect of our two compounds on the anti-apoptotic Bcl-XL and Bcl-2 genes as well as the proapoptotic Bak and Bad genes (Table 4). […] Therefore, we may presume that the apoptotic mechanism of both compounds against the A375 cells is not mediated by the tested genes or that alterations in their ratio are the underlying mechanism.

[3] = system: Bad gene; test: rtPCR gene expression in A375 cells; assay type: cell-based, human
Text: as §1

[4] = system: Bcl-XL gene; test: rtPCR gene expression in A375 cells; assay type: cell-based, human
Text: as §1

[5] = system: Bcl-2 gene; test: rtPCR gene expression in A375 cells; assay type: cell-based, human
Text: as §1

[6] = system: chorioallantoic membrane; test: HET-CAM irritation assay; conditions: for Irritation Score: 5 min
Text: HET-CAM assay was used in order to assess the toxicity of compounds 6 and 7 (Figure 16); the procedure is a low-cost, unique model in biomedical research that allows the testing of the irritation potency of chemical compounds while simultaneously avoiding in vivo experiments. […] The Luepke scale was used to establish the irritation score: 0–0.9 indicates non-irritant, 1–4.9 indicates weakly irritant, 5–8.9 indicates moderately irritant, and 9–21 means strongly irritant.
Compounds 6 and 7 were also evaluated in terms of biocompatibility on mucosal tissues by using the in vivo Hen’s Egg Chorioallantoic Membrane Test (HET-CAM assay). The assay assesses a potential irritant effect on the vascular plexus of the chorioallantoic membrane. The HET-CAM method was carried out following ICCVAM recommendations published in November 2016 in Appendix G and adapted to our laboratory conditions. Thus, 300 µL of control or test solution, respectively, was applied on CAM and the alterations induced at the CAM level were monitored by means of stereomicroscopy (Discovery 8 Stereomicroscope, Zeiss), registering significant images (Axio CAM 105 color, Zeiss), before the application and after 5 min contact with the samples. All images were processed using Zeiss ZEN software, Gimp 2.8 and ImageJ software. Negative control was represented by distilled water and solvent control DMSO 0.5%, while the positive control by the sodium lauryl sulphate (SLS) 0.5% in distillate water. The test substances were tested in concentrations of 1 µM. The observation time of the produced reactions was 5 min (300 s) and the time, at which the occurrence of a particular reaction took place was recorded in seconds. Finally, the following reactions were monitored: hemorrhage—H (blood vessel bleeding), vascular lysis —L (disintegration of blood vessels), and coagulation —C (intra or extra- vascular protein denaturizing). A variety of analysis methods may be used to assess irritancy potential of test substances. One analysis method that has been used extensively used is an irritation score (IS) calculated according to the following formula: IS=5×301−SecH/300+[…]/300+9×301−SecC/300 where H = hemorrhage; L = vessel lysis; C = coagulation; Hemorrhage time (Sec H) = onset of hemorrhage reactions on CAM (in sec); Lysis time (Sec L) = onset of vessel lysis on CAM (in sec); Coagulation time (Sec C) = onset of coagulation formation on CAM (in sec). The formula comprises a factor indicating the impact of the observed effect on vascular damage, e.g., coagulation has the highest impact expressed by the multiplication factor 9. The IS values range on a scale between 0 and 21.

[7] = system: Bad gene; test: rtPCR gene expression in Sk-Mel-28 cells; assay type: cell-based, human
[8] = system: Bcl-2 gene; test: rtPCR gene expression in Sk-Mel-28 cells; assay type: cell-based, human
[9] = system: Bcl-2 gene; test: rtPCR gene expression in RPMI cells; assay type: cell-based, human
[10] = system: HaCaT—human keratinocytes; test: MTT cytotoxicity assay for healthy human cells; assay type: cell-based; conditions: 48 h
Procedure: (§2) The in vitro cytotoxicity was determined by means of (4,5-dimethylthiazol-2-yl)-2,5-diphenyltetrazolium bromide (MTT) method. In brief, HaCaT, 1BR3 cells were seeded in 96-well plates at an initial density of […] and allowed to attach. Next, the old medium was removed and a fresh one was added containing five concentrations (100 µM, 10 µM, 1 µM, 0.1 µM, and 0.01 µM) of the tested compounds 6 and 7 after which cells were incubated for 48 h. The control cells were treated with the same amount of DMSO, the highest concentration of DMSO present in the medium being 0.5%. A volume of […] MTT reagent (5 mg/mL) was added in each well. During a 4 h contact period, the intact mitochondrial reductase converted and precipitated MTT as blue crystals. The precipitated crystals were dissolved in […] of lysis solution provided by the manufacturer (Sigma-Aldrich). Finally, the reduced MTT was spectrophotometrically analyzed at 570 nm, using a microplate reader (xMark Microplate Spectrophotometer, Bio-Rad, Hercules, CA, USA). GI50 was calculated for each healthy cell line.

[11] = system: 1BR3 human fibroblasts; test: MTT cytotoxicity assay for healthy human cells; assay type: cell-based; conditions: 1BR3 healthy cells, 48 h
Procedure: as §2

[12] = system: Bak gene; test: rtPCR gene expression in RPMI cells; assay type: cell-based, human
Text: as §1

[13] = system: Bcl-XL gene; test: rtPCR gene expression in RPMI cells; assay type: cell-based, human
Text: as §1

C[C@H]1[C@@H]2[C@H]3CC[C@@H]4[C@@]5(C)C/C(=C\c6cccnc6)C(=O)C(C)(C)[C@@H]5CC[C@@]4(C)[C@]3(C)CC[C@]23CO[C@@]1(C)[C@@H](C(=O)/C=C/c1cccnc1)C3 [Compound 6, 3-Oxo-2-(3-pyridinylidene)-21-[3-(2E-pyridinyl)-prop-2-en-1-one]-20β,28-epoxy-18α,19βH-ursane]
Effect on the normal angiogenic process [1]: only slightly affected angiogenesis
Bak gene expression, Mean [2]: downregulated
Bak gene expression, Mean ([2]; listed as compound 6): 0.546 ***
Bad gene expression, Mean [3]: downregulated
Bad gene expression, Mean ([3]; listed as compound 6): 0.150 *
Bcl-XL gene expression, Mean [4]: 0.286 *
Bcl-2 gene expression, Mean [5]: 2.570
Irritation Score ([6]; HET-CAM, 300 µL, 1 µM test compounds, scale 0–21): 0
Type of Effect ([6]; HET-CAM, Luepke scale): Non irritant
Bad gene expression, Mean [7]: 15.716 **
Bcl-2 gene expression, Mean [8]: 0.200 *
Bcl-2 gene expression, Mean [9]: 0.246 **
GI50 [10]: 18.6 µM
GI50 ([10]; Homo sapiens, HaCaT): > 15 µM
GI50 [11]: 23.1 µM
GI50 ([11]; Homo sapiens, Fibroblast): > 15 µM
Bak gene expression, Mean [12]: 0.066 ***
Bcl-XL gene expression, Mean [13]: 0.100 **

COC(=O)[C@]12CC[C@@H](C(=O)/C=C/c3cccnc3)[C@@H]1[C@H]1CC[C@@H]3[C@@]4(C)C/C(=C\c5cccnc5)C(=O)C(C)(C)[C@@H]4CC[C@@]3(C)[C@]1(C)CC2 [Compound 7, methyl 2,30-bis-(3-pyridinylidene)-3,20-dioxo-lup-28-oate]
Effect on the normal angiogenic process [1]: did not interfere with the normal angiogenic process; also recorded: does not influence the angiogenic process
Bak gene expression, Mean [2]: upregulation
Bak gene expression, Mean ([2]; listed as compound 7): 17.743 ***
Bad gene expression, Mean [3]: upregulation
Bad gene expression, Mean ([3]; listed as compound 7): 155.433 *
Bcl-XL gene expression, Mean [4]: upregulation
Bcl-XL gene expression, Mean ([4]; listed as compound 7): 28.893 **
Bcl-2 gene expression, Mean [5]: upregulation
Bcl-2 gene expression, Mean ([5]; listed as compound 7): 81.120 ***
Irritation Score ([6]; chicken, in vivo, 1 µM): 0
Type of Effect ([6]; in vivo): Non irritant
Bad gene expression, Mean [7]: 65.946 ***
Bcl-2 gene expression, Mean [8]: 0.210 *
Bcl-2 gene expression, Mean [9]: 0.313
GI50 [10]: 15.4 µM
GI50 ([10]; Homo sapiens, HaCaT): > 15 µM
GI50 [11]: 20.9 µM
GI50 ([11]; Homo sapiens, Fibroblast): > 15 µM
Bak gene expression, Mean [12]: 0.990 **
Bcl-XL gene expression, Mean [13]: 1.360 *
